Experimental data taken from ChEMBL document CHEMBL4266008, “Exploring Halogen Bonds in 5-Hydroxytryptamine 2B Receptor-Ligand Interactions” (ACS Med Chem Lett, 2018).
The source made the active and inactive calls. No cut-off for these calls is given here.

Legend:
[1] = target: T1, 5-hydroxytryptamine receptor 2B (Homo sapiens, UniProt P41595); assay: Antagonist activity at 5HT2B (unknown origin) expressed in CHOK1 cells assessed as inhibition of agonist-induced effect at 10 uM preincubated for 60 mins at 37 degC followed by 15 mins incubation at room temperature and subsequent agonist addition measured for 100 secs by fluorescence assay relative to control; format: functional, cell-based
T1 sequence (P41595 whole entry): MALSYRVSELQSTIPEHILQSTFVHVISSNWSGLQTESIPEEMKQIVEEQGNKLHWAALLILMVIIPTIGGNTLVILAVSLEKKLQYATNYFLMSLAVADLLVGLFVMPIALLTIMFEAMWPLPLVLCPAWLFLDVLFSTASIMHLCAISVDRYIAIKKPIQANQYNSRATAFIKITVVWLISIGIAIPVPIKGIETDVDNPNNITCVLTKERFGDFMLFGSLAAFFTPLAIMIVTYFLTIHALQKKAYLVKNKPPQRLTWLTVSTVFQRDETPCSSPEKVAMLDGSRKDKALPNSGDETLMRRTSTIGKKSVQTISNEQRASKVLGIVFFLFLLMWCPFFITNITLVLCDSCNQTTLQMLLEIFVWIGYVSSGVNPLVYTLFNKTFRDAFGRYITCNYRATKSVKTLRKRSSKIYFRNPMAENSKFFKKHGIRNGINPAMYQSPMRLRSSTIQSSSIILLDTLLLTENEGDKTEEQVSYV

[2] = target: T1, 5-hydroxytryptamine receptor 2B; assay: Displacement of [3H]LSD from 5HT2B (unknown origin) after 1.5 hrs by microbeta scintillation counting method
[3] = target: T1, 5-hydroxytryptamine receptor 2B; assay: Antagonist activity at 5HT2B (unknown origin) expressed in CHOK1 cells assessed as inhibition of agonist-induced effect preincubated for 60 mins at 37 degC followed by 15 mins incubation at room temperature and subsequent agonist addition measured for 100 secs by fluorescence assay; format: functional, cell-based
Mus musculus [4] = assay: Protection against castor oil-induced diarrhea in C57BL/6 mouse assessed as improvement in stool consistency at 10 mg/kg, po pretreated for 15 mins followed by castor oil addition measured over 4 hrs; format: functional, organism-based
Mus musculus [5] = assay: Protection against castor oil-induced diarrhea in C57BL/6 mouse assessed as improvement in fecal output at 10 mg/kg, po pretreated for 15 mins followed by castor oil addition measured over 4 hrs; format: functional, organism-based
Mus musculus [6] = assay: Protection against castor oil-induced diarrhea in C57BL/6 mouse assessed as improvement in body weight at 10 mg/kg, po pretreated for 15 mins followed by castor oil addition measured over 4 hrs; format: functional, organism-based

Row | Structure (SMILES) | Ki [2] [nM] | IC50 [3] [nM] | other results
1 | NC1=NC2(CCCCC2)NC(Nc2cccc(O)c2)=N1 | 313 |  | inhibition [1]: < 50%
2 | NC1=NC2(CCCCC2)NC(Nc2cccc(F)c2)=N1 | 53.3 | 403 | 
3 | NC1=NC2(CCCCC2)NC(Nc2cccc(Br)c2)=N1 | 5.8 | 35.4 | 
4 | NC1=NC2(CCCCC2)NC(Nc2cc(Br)cc(Br)c2)=N1 |  | 215 | 
5 | NC1=NC2(CCCCC2)NC(Nc2ccccc2)=N1 | 151 | 1640 | 
6 | CN(C)CC/C=C1\c2ccc(F)cc2COc2ccccc21 | 16.6 |  | 
7 | CCOC(=O)c1cc(Br)cc(NC2=NC(N)=NC3(CCCCC3)N2)c1 |  | 1960 | 
8 | CN(C)CC/C=C1\c2ccc(Br)cc2COc2ccccc21 | 2.5 |  | Activity (Mus musculus [4]): Active; Activity (Mus musculus [5]): Active; Activity (Mus musculus [6]): Active
9 | NC1=NC2(CCCCC2)NC(Nc2cccc(I)c2)=N1 | 1.7 | 23.3 | 
10 | Cc1cccc(NC2=NC(N)=NC3(CCCCC3)N2)c1 | 19.8 | 459 | 
11 | CN(C)CC/C=C1\c2ccc(Cl)cc2COc2ccccc21 | 3 |  | 
12 | CN(C)CC/C=C1\c2ccccc2COc2ccccc21 [E-DOXEPIN] |  |  | Activity (Mus musculus [4]): Active; Activity (Mus musculus [5]): Active
13 | NC1=NC2(CCCCC2)NC(Nc2cccc(Cl)c2)=N1 | 6.3 | 46.9 | 
14 | NC1=NC2(CCCCC2)NC(Nc2cc(F)cc(Br)c2)=N1 |  | 74.9 | 
